From article PMC11831560, “Development of the Pyrido[2,3-d]pyrimidin-7(8H)-one Scaffold toward Potent and Selective NUAK1 Inhibitors” (ACS Medicinal Chemistry Letters, 2025)
pIC50: −log10 of the molar value. “And” between values parts separate entries of the source, which are not always exact repeats. Equal values may be shown once.

Key:
Assay in all cases: Kinase panel radiometric filter binding (33P-ATP)
Type in all cases: biochemical
[1] = target: MPSK1 (Homo sapiens, UniProt O75716); parameters: dose or concentration left out as unconfirmed
Experimental: (§1) Table S4: AMPKA kinase activity data (ADP-Glo assay)
(§2) Compound pIC50 (Fold selectivity
(§3) Table S5. Kinase selectivity screening for 9 and 24 at 1 µM against a general kinase panel of 140 targets
(§4) in radiometric filter binding assay using 33P-γ−ATP at the MRC PPU International Centre for Kinase
(§5) Profiling, University of Dundee. pIC50 values were determined for compounds with <20% activity
(§6) Kinase activity s.d. pIC50 activity s.d. pIC50

[2] = target: PKBa (Homo sapiens, UniProt P31749); parameters: dose or concentration left out as unconfirmed
Experimental: as §1, §2, §3, §4, §5, §6

[3] = target: GCK (Homo sapiens, UniProt Q12851); parameters: dose or concentration left out as unconfirmed
Experimental: as §1, §2, §3, §4, §5, §6

[4] = target: TAO1 (Homo sapiens, UniProt Q7L7X3); parameters: dose or concentration left out as unconfirmed
Experimental: as §1, §2, §3, §4, §5, §6

[5] = target: SRPK1 (Homo sapiens, UniProt Q96SB4); parameters: dose or concentration left out as unconfirmed
Experimental: as §1, §2, §3, §4, §5, §6

[6] = target: IR (Homo sapiens, UniProt P06213); parameters: % activity remaining: dose or concentration left out as unconfirmed; details: for % activity remaining: IR
Experimental: as §1, §2, §3, §4, §5, §6

[7] = target: TrkA (Homo sapiens, UniProt P04629); parameters: % activity remaining: dose or concentration left out as unconfirmed; details: for % activity remaining: TrkA
Experimental: as §1, §2, §3, §4, §5, §6

[8] = target: T1, MARK4 (Homo sapiens, UniProt Q96L34); parameters: % activity remaining: dose or concentration left out as unconfirmed; details: for % activity remaining: MARK4
T1 construct: purchased MRC PPU
T1 sequence (Q96L34 1-752): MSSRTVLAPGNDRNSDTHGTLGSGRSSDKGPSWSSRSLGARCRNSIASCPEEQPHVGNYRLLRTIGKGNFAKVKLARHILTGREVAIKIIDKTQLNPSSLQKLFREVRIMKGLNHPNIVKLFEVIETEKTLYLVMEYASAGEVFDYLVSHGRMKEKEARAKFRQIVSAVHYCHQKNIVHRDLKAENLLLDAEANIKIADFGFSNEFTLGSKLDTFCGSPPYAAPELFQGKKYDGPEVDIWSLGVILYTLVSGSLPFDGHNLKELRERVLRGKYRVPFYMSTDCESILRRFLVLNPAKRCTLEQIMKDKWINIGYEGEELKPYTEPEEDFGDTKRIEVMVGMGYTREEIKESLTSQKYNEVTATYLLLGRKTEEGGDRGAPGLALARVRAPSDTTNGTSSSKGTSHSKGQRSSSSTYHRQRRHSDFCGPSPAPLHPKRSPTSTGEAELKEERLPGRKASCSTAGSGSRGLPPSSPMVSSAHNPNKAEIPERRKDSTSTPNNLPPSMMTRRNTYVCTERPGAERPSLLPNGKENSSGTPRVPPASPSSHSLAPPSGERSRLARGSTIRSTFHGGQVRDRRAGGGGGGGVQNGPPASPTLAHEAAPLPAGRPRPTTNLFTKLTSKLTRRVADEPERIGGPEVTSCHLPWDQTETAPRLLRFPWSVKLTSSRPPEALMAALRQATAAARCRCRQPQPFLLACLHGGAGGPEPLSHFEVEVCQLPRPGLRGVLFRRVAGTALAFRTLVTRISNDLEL
Experimental: as §1, §2, §3, §4, §5, §6

[9] = target: T2, TAK1 (Homo sapiens, UniProt O43318); parameters: % activity remaining: dose or concentration left out as unconfirmed; details: for % activity remaining: TAK1
T2 sequence (O43318 1-303 limits assumed): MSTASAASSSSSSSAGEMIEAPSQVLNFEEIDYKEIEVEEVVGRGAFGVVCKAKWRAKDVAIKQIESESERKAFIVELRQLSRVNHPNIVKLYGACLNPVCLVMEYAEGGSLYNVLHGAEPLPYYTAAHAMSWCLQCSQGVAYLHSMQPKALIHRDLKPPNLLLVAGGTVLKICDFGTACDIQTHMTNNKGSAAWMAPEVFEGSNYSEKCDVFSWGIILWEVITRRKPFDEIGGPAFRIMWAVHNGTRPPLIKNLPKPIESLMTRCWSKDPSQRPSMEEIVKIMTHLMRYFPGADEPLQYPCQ
Experimental: as §1, §2, §3, §4, §5, §6

[10] = target: T3, ULK2 (Homo sapiens, UniProt Q8IYT8); parameters: % activity remaining: dose or concentration left out as unconfirmed; details: for % activity remaining: ULK2
T3 sequence (Q8IYT8 1-1036): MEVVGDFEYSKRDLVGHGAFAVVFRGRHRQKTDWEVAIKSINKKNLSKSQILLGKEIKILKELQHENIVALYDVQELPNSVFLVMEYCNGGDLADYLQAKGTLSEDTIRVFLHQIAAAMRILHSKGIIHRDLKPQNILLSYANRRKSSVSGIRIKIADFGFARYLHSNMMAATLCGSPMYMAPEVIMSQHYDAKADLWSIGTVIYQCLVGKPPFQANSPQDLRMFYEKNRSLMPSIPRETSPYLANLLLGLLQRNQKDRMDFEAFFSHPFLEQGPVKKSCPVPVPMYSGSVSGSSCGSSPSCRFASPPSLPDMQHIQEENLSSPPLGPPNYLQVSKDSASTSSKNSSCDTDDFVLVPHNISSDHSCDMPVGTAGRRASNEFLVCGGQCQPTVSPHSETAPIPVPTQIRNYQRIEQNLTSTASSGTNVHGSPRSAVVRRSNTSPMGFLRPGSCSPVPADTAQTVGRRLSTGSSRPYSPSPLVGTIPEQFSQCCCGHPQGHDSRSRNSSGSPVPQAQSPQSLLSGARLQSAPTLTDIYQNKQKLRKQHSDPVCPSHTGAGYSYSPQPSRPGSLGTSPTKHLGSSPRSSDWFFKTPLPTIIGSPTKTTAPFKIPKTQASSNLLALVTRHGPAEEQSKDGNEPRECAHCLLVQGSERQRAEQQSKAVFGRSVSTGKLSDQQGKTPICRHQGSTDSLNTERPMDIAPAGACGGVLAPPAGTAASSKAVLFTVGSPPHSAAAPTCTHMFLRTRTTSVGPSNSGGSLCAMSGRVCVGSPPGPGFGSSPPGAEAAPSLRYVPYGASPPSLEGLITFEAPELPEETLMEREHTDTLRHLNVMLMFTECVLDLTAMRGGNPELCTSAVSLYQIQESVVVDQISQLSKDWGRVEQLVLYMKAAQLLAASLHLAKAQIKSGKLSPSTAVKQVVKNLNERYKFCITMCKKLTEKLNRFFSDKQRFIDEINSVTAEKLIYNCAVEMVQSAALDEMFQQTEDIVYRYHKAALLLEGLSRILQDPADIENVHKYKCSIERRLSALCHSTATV
Experimental: as §1, §2, §3, §4, §5, §6

[11] = radiometric filter binding panel

IR, sequence (P06213 28-1382): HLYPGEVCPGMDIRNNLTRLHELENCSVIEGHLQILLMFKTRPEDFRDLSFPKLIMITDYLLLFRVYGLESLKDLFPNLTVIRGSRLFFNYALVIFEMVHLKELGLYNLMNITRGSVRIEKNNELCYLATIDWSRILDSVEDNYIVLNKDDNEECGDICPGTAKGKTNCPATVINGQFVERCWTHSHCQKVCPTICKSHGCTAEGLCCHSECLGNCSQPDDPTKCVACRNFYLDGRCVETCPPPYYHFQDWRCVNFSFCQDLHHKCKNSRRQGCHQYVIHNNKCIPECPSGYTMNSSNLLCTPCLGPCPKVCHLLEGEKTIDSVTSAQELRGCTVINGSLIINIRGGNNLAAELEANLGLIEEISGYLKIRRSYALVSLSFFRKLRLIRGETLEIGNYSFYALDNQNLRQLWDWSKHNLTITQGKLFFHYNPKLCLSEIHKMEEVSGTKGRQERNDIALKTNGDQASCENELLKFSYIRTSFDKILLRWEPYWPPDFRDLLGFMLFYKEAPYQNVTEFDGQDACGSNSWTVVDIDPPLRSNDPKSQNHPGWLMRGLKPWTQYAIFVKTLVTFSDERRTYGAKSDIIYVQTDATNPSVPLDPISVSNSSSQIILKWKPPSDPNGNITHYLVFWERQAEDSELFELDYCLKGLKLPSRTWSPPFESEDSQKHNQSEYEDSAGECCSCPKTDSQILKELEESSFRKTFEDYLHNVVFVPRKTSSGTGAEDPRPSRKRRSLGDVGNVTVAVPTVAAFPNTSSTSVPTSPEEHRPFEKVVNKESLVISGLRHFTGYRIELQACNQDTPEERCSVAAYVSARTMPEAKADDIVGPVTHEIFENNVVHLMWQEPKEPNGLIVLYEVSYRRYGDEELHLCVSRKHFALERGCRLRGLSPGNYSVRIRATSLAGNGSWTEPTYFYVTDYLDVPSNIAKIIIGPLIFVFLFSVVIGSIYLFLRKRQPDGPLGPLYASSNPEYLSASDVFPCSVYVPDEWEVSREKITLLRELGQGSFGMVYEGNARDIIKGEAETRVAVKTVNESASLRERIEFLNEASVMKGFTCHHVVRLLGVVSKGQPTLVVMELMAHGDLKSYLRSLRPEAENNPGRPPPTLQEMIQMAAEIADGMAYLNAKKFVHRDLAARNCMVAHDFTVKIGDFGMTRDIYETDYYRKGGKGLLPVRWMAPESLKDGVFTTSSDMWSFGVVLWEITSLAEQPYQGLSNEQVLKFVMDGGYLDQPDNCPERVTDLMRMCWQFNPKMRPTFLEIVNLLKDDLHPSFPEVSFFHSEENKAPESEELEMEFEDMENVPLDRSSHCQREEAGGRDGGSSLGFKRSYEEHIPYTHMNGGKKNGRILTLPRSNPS
TrkA, sequence (P04629 33-796, species assumed): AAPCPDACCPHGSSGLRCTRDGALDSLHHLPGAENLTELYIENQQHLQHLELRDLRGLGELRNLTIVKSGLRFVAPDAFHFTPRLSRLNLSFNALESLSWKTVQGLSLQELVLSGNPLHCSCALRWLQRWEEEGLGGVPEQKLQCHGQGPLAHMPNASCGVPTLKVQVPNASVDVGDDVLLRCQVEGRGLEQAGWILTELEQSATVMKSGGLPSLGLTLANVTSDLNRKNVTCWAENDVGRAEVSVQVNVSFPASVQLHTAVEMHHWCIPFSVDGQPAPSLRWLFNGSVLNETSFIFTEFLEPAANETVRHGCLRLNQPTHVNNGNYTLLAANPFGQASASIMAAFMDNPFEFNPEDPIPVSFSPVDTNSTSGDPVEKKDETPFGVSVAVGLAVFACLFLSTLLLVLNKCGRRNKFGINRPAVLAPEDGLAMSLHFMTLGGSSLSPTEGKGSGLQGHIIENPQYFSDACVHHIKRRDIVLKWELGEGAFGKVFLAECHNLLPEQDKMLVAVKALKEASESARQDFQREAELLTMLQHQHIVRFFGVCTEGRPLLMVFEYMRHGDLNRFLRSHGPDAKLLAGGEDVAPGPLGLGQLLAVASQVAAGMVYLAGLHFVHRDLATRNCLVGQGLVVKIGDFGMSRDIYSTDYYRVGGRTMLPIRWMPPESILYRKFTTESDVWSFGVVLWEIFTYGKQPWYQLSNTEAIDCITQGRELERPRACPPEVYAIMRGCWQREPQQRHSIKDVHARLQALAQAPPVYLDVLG
PKBa, sequence (P31749 whole entry): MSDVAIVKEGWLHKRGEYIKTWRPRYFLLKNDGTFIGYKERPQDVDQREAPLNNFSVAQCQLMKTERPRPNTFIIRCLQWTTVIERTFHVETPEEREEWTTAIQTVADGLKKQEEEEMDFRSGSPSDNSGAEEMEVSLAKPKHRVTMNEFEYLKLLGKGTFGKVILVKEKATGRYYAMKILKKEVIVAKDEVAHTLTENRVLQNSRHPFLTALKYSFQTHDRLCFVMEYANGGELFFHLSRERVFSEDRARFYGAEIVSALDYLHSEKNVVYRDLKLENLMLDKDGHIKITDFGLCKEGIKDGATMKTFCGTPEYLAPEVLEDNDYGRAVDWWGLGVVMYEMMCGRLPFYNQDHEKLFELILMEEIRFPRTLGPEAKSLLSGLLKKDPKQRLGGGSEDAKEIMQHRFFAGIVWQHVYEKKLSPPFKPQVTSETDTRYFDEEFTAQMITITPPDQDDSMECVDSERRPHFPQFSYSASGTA
MPSK1, sequence (O75716 whole entry): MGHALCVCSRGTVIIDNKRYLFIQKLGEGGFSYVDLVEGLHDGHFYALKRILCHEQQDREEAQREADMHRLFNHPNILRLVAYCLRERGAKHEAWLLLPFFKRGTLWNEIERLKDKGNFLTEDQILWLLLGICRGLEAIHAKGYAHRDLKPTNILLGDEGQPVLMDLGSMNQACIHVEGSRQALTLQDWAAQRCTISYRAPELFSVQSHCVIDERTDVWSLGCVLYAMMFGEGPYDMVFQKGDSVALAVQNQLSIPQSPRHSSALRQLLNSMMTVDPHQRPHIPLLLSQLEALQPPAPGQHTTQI
GCK, sequence (Q12851 whole entry): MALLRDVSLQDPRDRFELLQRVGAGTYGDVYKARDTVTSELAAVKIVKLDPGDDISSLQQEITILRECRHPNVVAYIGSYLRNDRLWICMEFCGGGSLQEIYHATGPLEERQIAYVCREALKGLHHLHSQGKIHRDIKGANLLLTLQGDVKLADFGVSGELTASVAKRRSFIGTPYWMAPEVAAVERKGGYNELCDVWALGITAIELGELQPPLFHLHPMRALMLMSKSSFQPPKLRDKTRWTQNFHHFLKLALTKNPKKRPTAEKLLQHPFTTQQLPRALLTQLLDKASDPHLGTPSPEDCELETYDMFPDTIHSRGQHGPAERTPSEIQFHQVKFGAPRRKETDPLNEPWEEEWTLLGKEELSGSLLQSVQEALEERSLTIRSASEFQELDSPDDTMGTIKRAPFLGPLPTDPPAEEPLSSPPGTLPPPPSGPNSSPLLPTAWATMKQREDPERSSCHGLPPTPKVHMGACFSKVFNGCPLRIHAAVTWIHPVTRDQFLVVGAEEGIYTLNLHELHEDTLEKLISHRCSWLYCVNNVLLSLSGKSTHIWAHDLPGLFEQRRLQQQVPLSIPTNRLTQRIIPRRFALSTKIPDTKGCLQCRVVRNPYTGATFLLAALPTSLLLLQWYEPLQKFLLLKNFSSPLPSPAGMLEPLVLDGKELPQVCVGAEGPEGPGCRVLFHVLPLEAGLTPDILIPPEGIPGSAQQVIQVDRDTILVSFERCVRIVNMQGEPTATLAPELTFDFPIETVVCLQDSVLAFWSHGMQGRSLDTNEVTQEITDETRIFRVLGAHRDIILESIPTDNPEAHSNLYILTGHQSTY
TAO1, sequence (Q7L7X3 whole entry): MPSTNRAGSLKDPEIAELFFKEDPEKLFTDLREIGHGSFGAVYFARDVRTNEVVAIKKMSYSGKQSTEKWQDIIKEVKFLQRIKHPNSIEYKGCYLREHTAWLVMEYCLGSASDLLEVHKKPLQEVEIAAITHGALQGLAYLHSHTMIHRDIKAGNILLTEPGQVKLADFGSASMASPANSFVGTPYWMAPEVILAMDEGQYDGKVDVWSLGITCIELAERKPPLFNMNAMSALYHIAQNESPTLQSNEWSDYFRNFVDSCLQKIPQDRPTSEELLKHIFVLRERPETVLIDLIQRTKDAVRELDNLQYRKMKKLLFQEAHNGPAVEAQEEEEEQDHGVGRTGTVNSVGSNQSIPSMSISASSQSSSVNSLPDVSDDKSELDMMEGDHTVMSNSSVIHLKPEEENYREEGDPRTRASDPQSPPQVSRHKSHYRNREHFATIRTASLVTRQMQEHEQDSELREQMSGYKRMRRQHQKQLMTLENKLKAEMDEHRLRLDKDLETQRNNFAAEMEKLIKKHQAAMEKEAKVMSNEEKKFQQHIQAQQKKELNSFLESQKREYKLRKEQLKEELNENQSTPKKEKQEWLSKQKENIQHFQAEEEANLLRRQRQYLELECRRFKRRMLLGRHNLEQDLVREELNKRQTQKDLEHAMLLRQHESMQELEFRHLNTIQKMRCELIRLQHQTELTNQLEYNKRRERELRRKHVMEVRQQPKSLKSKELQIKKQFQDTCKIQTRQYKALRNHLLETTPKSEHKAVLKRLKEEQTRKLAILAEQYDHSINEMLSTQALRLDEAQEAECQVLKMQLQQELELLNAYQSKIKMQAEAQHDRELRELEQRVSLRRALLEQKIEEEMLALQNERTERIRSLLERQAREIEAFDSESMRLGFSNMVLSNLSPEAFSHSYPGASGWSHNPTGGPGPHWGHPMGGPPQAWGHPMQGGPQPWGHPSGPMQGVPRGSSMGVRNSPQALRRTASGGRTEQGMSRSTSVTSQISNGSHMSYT

With Cc1cc(=O)n(C2CCCC2)c2nc(Nc3ccc(N4CC5CC(C4)N5C)cc3)ncc12 [Compound 9] the “% activity remaining” value [1] was 114%, the “% activity remaining” value [2] was 103% and the “% activity remaining” value [3] was 76%. The “% activity remaining” value [4] was 91%, the “% activity remaining” value [5] was 111% and the “% activity remaining” value [6] was 14%. The IC50 ([6]; radiometric filter binding panel, read-out: IR pIC50 (converted)) was 263 nM, the pIC50 [7] was 7.01 and the “% activity remaining” value [7] was 12%. For the same compound, the “TrkA pIC50” value [7, 11] was > 7, the “% activity remaining” value [8] was 49% and the inhibition at 1 µM ([8]; at 1 μM, radiometric filter binding assay, Dundee, read-out: MARK4 single point % inhibition) was 51%. For the same compound, the “% activity remaining” value [9] was 6%, the IC50 ([9]; radiometric filter binding panel, read-out: TAK1 pIC50 (converted)) was 209 nM and the “% activity remaining” value [10] was 17%. For the same compound, the “ULK2 pIC50” value [10, 11] was 7.4 and 7.39.
In the case of CN1C2CC1CN(c1ccc(Nc3ncc4ccn(CC5CCOCC5)c4n3)cc1)C2 [Compound 24], the “% activity remaining” value [1] was 76%, the “% activity remaining” value [2] was 110% and the “% activity remaining” value [3] was 89%. For the same compound, the “% activity remaining” value [4] was 97%, the “% activity remaining” value [5] was 79% and the “% activity remaining” value [6] was 87%. The “% activity remaining” value [7] was 72%, the “% activity remaining” value [8] was 95% and the “% activity remaining” value [9] was 110%. For the same compound, the “% activity remaining” value [10] was 75%.
